According to ChEMBL document CHEMBL1201862, “PubChem BioAssay data set” (2004):
Blank lines part the entries; values can stand above or below the compound they belong to. Calls of active or inactive are those of the source.

Key:
[1] = system: HEK293; test: cells; format: functional, cell-based; details: Homo sapiens
[2] = target: T1, Nuclear receptor subfamily 0 group B member 1 (Homo sapiens, UniProt P51843); test: Luminescence-based cell-based high throughput dose response assay for inhibitors of the orphan nuclear receptor subfamily 0, group B, member 1 (DAX1; NR0B1). [Related pubchem assays (depositor defined):AID504766, AID504790]; format: functional
T1 sequence (P51843 whole entry): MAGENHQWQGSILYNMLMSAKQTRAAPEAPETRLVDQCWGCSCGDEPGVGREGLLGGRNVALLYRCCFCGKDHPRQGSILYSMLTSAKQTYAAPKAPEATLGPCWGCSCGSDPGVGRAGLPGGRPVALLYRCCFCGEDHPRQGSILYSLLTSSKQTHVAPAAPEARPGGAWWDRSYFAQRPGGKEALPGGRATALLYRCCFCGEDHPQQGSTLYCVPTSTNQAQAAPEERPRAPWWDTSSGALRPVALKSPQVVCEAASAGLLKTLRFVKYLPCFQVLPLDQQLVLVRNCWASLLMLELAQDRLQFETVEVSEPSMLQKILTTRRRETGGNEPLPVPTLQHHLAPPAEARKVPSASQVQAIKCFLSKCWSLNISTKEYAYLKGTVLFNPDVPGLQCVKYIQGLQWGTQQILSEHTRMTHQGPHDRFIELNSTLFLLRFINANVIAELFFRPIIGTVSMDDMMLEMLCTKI

[3] = target: Tyrosine-protein phosphatase non-receptor type 11 (Homo sapiens, UniProt Q06124); test: PTPN11 enzyme inhibitors – biochemical, selectivity assay for STEP inhibitor project, dose response (AID 602367); format: functional; details: read-out: IC50_Mean
[4] = target: Tyrosine-protein phosphatase non-receptor type 5 (Homo sapiens, UniProt P54829); test: PTPN5 enzyme inhibition – biochemical, fluorescence intensity, uHTS hits, confirmation (AID 602372); format: functional; details: read-out: IC50_Mean
[5] = target: Dual specificity protein phosphatase 3 (Homo sapiens, UniProt P51452); test: VHR phosphatase inhibition, dose response, selectivity assay for STEP inhibitor project, biochemical (AID 602374); format: functional; details: read-out: IC50_Mean
[6] = target: T2, Sentrin-specific protease 8 (Homo sapiens, UniProt Q96LD8); format: functional
T2 sequence (Q96LD8 whole entry): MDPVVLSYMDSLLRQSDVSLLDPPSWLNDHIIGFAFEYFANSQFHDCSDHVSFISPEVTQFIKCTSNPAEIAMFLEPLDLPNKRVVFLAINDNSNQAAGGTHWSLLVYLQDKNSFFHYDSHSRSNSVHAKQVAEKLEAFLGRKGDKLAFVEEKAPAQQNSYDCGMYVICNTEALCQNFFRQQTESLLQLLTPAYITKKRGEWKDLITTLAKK

[7] = target: T2, Sentrin-specific protease 8; format: functional; remark: listed apart in the source
[8] = target: Mitochondrial peptide methionine sulfoxide reductase (Bos taurus, UniProt P54149); format: functional;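 also: absorbance read-out, biochemical high-throughput dose-response screen for MsrA inhibitors, confirmatory; recombinant bovine MsrA coupled to E. coli TrxB with NADPH and selenocystamine; potency is for inhibitors of MsrA activity on DMSO substrate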
[9] = system: INS1; test: INS-1E survival protection against cytokine death – cell-based, luminescence, retest, dose response (AID 449756); format: functional; details: Rattus norvegicus;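 also: cell death triggered by IL-1 beta plus TNF-alpha plus IFN-gamma mixture; protective hits raise ATP signal compared with cytokine alone wells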
[10] = fluconazole-exposed Candida albicans growth modulators – fluorescence, retest, confirmation (AID 2467); format: functional, cell-based
[11] = target: ATP-dependent molecular chaperone HSP82 (Candida albicans (strain WO-1) (Yeast), UniProt C4YTQ8); test: steroid-induced GRE reporter decrease in yeast – S. cerevisiae, luminescence, Hsp90 inhibitor project, dose response (AID 2400); format: functional, cell-based;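 also: beta-galactosidase luminescence from glucocorticoid response element reporter as proxy for Hsp90 function; inhibitor potency where signal loss means Hsp90 inhibition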
[12] = NIH-3T3 fibroblast cytotoxicity, dose response, cytotoxicity control, cell-based, fluorescence, Alamar Blue, secondary assay (AID 2327); format: functional;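 also: NIH-3T3 mouse fibroblasts cultured with fluconazole at 8 µg/mL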
[13] = target: T3, Serine/threonine-protein phosphatase (Candida dubliniensis (strain CD36 / CBS 7987 / NCPF 3949 / NRRLY-17841) (Yeast), UniProt B9W6M3); test: blockers of CaCl2-induced CDRE-lacZ signaling – S. cerevisiae, luminescence, secondary, dose response (AID 2388); format: functional, cell-based;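 also: yeast reporter cells carrying a calcineurin-responsive lacZ construct stimulated with calcium chloride; luminescent beta-galactosidase reporter signal in whole cells rather than isolated phosphatase activity; potency for inhibition where a drop in reporter signal means calcineurin blockade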
T3 sequence (B9W6M3 whole entry): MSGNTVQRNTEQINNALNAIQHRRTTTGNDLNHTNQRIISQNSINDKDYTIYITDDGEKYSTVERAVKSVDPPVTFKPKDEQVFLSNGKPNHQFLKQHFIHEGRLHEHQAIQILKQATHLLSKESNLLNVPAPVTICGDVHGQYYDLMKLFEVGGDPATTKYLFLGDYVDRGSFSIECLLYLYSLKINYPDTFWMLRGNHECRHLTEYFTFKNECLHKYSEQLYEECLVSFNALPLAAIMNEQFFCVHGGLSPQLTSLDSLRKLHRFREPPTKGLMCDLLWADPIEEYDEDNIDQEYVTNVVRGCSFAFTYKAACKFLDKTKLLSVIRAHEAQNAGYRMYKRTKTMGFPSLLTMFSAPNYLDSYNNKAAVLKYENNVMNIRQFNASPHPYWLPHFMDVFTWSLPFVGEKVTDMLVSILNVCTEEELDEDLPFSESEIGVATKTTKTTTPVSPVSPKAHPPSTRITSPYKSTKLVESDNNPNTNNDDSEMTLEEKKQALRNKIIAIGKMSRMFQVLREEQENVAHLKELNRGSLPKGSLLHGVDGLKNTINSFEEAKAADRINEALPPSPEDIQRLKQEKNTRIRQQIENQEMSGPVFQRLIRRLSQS

[14] = target: T4, Low molecular weight phosphotyrosine protein phosphatase (Homo sapiens, UniProt P24666); format: functional; details: read-out: IC50_Mean
T4 sequence (P24666 whole entry): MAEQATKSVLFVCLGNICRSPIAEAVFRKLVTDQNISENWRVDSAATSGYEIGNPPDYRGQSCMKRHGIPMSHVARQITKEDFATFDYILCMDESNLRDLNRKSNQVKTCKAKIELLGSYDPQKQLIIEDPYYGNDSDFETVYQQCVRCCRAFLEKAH

[15] = target: T5, Tyrosine-protein phosphatase non-receptor type 22 (Homo sapiens, UniProt Q9Y2R2); test: PTPN22 enzyme inhibitors – biochemical, fluorescence, LYP catalytic domain, selectivity assay for LMPTP inhibitor project, dose response (AID 652006); format: functional; details: read-out: IC50_Mean
T5 sequence (Q9Y2R2 whole entry): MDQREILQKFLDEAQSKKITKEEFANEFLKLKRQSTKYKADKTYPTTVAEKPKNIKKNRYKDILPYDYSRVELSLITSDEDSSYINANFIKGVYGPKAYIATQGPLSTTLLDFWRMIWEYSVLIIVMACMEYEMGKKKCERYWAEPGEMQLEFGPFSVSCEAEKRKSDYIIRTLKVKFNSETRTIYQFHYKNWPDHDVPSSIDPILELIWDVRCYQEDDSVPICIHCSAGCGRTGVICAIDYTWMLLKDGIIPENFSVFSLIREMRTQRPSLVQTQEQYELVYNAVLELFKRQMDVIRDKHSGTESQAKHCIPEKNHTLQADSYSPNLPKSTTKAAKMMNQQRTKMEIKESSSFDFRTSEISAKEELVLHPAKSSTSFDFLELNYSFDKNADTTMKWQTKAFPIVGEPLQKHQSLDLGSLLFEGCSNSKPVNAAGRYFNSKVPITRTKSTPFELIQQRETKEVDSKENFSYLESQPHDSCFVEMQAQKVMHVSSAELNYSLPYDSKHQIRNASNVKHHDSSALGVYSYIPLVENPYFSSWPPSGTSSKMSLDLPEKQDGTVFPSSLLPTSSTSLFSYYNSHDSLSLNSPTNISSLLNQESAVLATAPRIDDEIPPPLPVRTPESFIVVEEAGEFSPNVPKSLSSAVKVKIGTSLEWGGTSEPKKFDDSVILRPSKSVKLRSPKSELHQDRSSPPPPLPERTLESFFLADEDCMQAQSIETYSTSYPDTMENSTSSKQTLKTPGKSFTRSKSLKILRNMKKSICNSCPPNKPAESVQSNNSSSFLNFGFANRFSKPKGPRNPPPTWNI

[16] = target: T4, Low molecular weight phosphotyrosine protein phosphatase; format: functional; details: read-out: IC50_Mean; remark: listed apart in the source
[17] = target: T6, Leucine aminopeptidase (Plasmodium falciparum 3D7, UniProt Q8IL11); test: P. falciparum M17LAP inhibitors, primary screen, biochemical, fluorogenic H-Leu-NHMec substrate, 1536-well (AID 1619); format: functional
T6 sequence (Q8IL11 whole entry): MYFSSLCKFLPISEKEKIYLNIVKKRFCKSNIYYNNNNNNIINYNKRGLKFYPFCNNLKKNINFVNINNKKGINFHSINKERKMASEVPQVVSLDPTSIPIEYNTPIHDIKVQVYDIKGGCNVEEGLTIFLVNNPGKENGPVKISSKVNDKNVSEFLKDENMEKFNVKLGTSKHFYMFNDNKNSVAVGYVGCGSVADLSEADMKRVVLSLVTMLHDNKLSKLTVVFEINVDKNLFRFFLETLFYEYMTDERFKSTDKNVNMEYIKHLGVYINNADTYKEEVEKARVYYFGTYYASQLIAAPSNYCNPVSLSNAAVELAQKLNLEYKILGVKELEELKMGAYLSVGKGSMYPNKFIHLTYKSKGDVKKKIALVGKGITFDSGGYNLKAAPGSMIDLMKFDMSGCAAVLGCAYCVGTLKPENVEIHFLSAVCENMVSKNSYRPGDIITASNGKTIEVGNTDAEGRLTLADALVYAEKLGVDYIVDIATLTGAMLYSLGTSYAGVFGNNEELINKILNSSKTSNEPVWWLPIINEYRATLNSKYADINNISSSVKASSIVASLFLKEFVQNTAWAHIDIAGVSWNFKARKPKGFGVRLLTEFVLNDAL

Sequence of Mitochondrial peptide methionine sulfoxide reductase (P54149 whole entry): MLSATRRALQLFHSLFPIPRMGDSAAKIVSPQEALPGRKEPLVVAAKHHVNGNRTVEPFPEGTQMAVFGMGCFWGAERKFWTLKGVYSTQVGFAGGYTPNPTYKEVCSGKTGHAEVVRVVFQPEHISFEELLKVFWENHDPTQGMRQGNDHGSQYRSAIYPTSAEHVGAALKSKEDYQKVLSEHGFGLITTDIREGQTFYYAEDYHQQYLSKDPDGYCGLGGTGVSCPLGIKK
Sequence of ATP-dependent molecular chaperone HSP82 (C4YTQ8 whole entry): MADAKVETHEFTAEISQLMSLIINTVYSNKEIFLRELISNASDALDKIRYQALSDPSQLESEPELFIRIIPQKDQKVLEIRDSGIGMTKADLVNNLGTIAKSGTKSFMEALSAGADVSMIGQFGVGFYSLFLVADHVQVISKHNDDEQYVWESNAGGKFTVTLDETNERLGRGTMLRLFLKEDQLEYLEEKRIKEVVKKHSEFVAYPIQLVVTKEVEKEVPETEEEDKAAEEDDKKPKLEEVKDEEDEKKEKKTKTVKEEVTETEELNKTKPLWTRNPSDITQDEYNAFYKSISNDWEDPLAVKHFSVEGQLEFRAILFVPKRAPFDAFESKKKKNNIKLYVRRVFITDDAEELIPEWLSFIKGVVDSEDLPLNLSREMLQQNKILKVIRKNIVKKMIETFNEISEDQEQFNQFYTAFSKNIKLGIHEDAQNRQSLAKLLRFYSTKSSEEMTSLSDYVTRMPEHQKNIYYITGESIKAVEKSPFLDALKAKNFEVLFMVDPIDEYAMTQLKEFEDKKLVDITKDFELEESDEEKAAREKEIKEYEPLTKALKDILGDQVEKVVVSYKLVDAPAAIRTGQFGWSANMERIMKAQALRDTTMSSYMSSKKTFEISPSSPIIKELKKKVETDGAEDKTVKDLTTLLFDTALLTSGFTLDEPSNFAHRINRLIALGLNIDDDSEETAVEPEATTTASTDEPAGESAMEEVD
Sequence of Dual specificity protein phosphatase 3 (P51452 whole entry): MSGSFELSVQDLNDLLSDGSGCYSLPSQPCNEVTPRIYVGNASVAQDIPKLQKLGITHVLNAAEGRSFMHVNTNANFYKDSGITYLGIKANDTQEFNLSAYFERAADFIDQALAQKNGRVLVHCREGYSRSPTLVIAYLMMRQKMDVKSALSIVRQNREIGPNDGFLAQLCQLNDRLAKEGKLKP
Sequence of Tyrosine-protein phosphatase non-receptor type 5 (P54829 whole entry): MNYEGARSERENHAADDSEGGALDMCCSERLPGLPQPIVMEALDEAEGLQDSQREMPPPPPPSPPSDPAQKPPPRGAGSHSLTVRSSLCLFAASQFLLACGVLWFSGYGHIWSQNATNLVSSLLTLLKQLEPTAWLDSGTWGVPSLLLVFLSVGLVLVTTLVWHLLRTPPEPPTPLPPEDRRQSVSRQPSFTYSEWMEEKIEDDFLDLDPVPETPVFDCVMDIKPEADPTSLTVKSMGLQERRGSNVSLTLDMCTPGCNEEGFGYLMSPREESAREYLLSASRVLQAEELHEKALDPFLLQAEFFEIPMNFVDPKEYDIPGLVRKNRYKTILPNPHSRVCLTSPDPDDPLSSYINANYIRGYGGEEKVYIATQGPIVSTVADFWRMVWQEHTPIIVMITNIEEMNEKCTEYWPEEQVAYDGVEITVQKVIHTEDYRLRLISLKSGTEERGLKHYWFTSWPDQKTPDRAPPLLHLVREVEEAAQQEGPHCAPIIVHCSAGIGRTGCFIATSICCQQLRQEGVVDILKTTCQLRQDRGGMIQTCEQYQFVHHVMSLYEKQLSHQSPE

Structure (SMILES): COC(=O)c1sc(=S)n(Cc2ccccc2)c1C
IC50 [1]: > 67.5 µM (inactive)
IC50 [2]: > 67.5 µM (inactive)

IC50 [3]: 1.71 µM (active)
IC50 [4]: > 80 µM (inactive)
IC50 [5]: 0.696 µM (active)
Structure (SMILES): COCCN(C(=S)Nc1c(C)cc(C)cc1C)C(C)c1cccnc1 (stereo unspecified)

Structure (SMILES): COC(=O)C1(Cc2ccc(O)cc2)OC(=O)C(O)=C1c1ccc(O)cc1 (stereo unspecified)
IC50 [1]: 56.1 µM (inactive)
IC50 [2]: > 67.5 µM (inactive)

Structure (SMILES): CC(=O)NN1C(=O)c2ccc3c4c(ccc(c24)C1=O)C(=O)N(NC(C)=O)C3=O
IC50 [6]: 0.445 µM (active)
IC50 [7]: 0.0707 µM (active)
IC50 [8]: 76.8 µM (inactive)
AC50 [9]: 0.652 µM (active)

Structure (SMILES): CCc1cc(-c2nnc(S)n2-c2ccccc2C)cs1
EC50 [10]: 0.363 µM (active)
EC50 [11]: > 160 µM (inactive)
EC50 [12]: > 150 µM (inactive)
EC50 [13]: > 180 µM (inactive)

Structure (SMILES): COCCNC(=O)C(c1ccc(Cl)cc1)N(Cc1ccco1)C(=O)CCC(=O)Nc1ccccn1 (stereo unspecified)
IC50 [1]: > 67.5 µM (inactive)
IC50 [2]: > 67.5 µM (inactive)

IC50 [14]: 11.6 µM (active)
IC50 [15]: 22.7 µM (inactive)
IC50 [16]: 16.4 µM (active)
Structure (SMILES): COc1ccc(Nc2nc(NCc3cccs3)nc3ccsc23)cc1OC

IC50 [17]: 45.7 µM (active)
IC50 [8]: 114 µM (inactive)
Structure (SMILES): Cc1[nH]c(C(=O)N/N=C/c2ccc(C(=O)O)cc2)c(C)c1C(=O)N/N=C/c1ccc(C(=O)O)cc1

Structure (SMILES): Nc1ccc(C(=O)N/N=C\c2ccc(OC(=O)c3ccccc3Cl)cc2)cc1
EC50 [10]: 0.797 µM (active)
EC50 [11]: > 160 µM (inactive)
EC50 [12]: > 160 µM (inconclusive)
EC50 [13]: > 180 µM (inactive)
